Patent publication US10966978B2, “Dose and regimen for HDM2-p53 interaction inhibitors” (Novartis AG, priority 2016, dated 2021)
Read-outs that look alike come from different tables or passages of the source.

Test system: patients with advanced TP53 wild-type (WT) leukemias
Excerpt: Patients with Ph+ ALL who show early markers of relapse in MRD surveillance can be considered for inclusion as long as other therapies such as TKIs are exhausted or cannot be given. • Tumor of the patient is TP53 wt characterized by, at a minimum, no mutations in exons 5, 6, 7 and 8, and the p53 status was obtained from a bone-marrow sample, collected no longer than 3 months before signing the main ICF. Safety and Tolerability Profile of Regimen 1B in Hematological Tumors

COc1ncc(-c2nc3c(n2C(C)C)[C@H](c2ccc(Cl)cc2)N(c2cc(Cl)cn(C)c2=O)C3=O)c(OC)n1 [HDM201, (S)-5-(5-Chloro-1-methyl-2-oxo-1,2-dihydro-pyridin-3-yl)-6-(4-chloro-phenyl)-2-(2,4-dimethoxy-pyrimidin-5-yl)-1-isopropyl-5,6-dihydro-1H-pyrrolo[3,4-d]imidazol-4-one]
AE: Atypical Pneumonia (All subjects N = 37, Grade 3/4): 0 n (%)
AE: Balanitis Candida (All subjects N = 37, Grade 3/4): 0 n (%)
AE: Blood Alkaline Phosphatase Increased (All subjects N = 37, Grade 3/4): 0 n (%)
AE: Blood Bilirubin Increased (All subjects N = 37, Grade 3/4): 0 n (%)
AE: Blood Creatinine Increased (All subjects N = 37, Grade 3/4): 1 (2.7) n (%)
AE: Blood Phosphorus Increased (All subjects N = 37, Grade 3/4): 0 n (%)
AE: Blood Uric Acid Increased (All subjects N = 37, Grade 3/4): 1 (2.7) n (%)
AE: Bone Marrow Failure (All subjects N = 37, Grade 3/4): 1 (2.7) n (%)
AE: C-Reactive Protein Increased (All subjects N = 37, Grade 3/4): 1 (2.7) n (%)
AE: Cardiac Failure (All subjects N = 37, Grade 3/4): 0 n (%)
AE: Cellulitis (All subjects N = 37, Grade 3/4): 1 (2.7) n (%)
AE: Chronic Graft Versus Host Disease (All subjects N = 37, Grade 3/4): 1 (2.7) n (%)
AE: Conjunctival Haemorrhage (All subjects N = 37, Grade 3/4): 0 n (%)
AE: Constipation (All subjects N = 37, Grade 3/4): 0 n (%)
AE: Cough (All subjects N = 37, Grade 3/4): 0 n (%)
AE: Cystitis Viral (All subjects N = 37, Grade 3/4): 0 n (%)
AE: Cytomegalovirus Infection (All subjects N = 37, Grade 3/4): 0 n (%)
AE: Decreased Appetite (All subjects N = 37, Grade 3/4): 0 n (%)
AE: Diarrhoea (All subjects N = 37, Grade 3/4): 0 n (%)
AE: Dyspepsia (All subjects N = 37, Grade 3/4): 0 n (%)
AE: Dyspnoea (All subjects N = 37, Grade 3/4): 1 (2.7) n (%)
AE: Epistaxis (All subjects N = 37, Grade 3/4): 0 n (%)
AE: Fatigue (All subjects N = 37, Grade 3/4): 0 n (%)
AE: Febrile Neutropenia (All subjects N = 37, Grade 3/4): 11 (29.7) n (%)
AE: Gamma-Glutamyltransferase Increased (All subjects N = 37, Grade 3/4): 1 (2.7) n (%)
AE: General Physical Health Deterioration (All subjects N = 37, Grade 3/4): 0 n (%)
AE: Gingival Bleeding (All subjects N = 37, Grade 3/4): 0 n (%)
AE: Graft Versus Host Disease (All subjects N = 37, Grade 3/4): 0 n (%)
AE: Haemoglobin Decreased (All subjects N = 37, Grade 3/4): 0 n (%)
AE: Headache (All subjects N = 37, Grade 3/4): 0 n (%)
AE: Hyperbilirubinaemia (All subjects N = 37, Grade 3/4): 0 n (%)
AE: Hyperglycaemia (All subjects N = 37, Grade 3/4): 0 n (%)
AE: Hyperkalaemia (All subjects N = 37, Grade 3/4): 1 (2.7) n (%)
AE: Hyperphosphataemia (All subjects N = 37, Grade 3/4): 0 n (%)
AE: Hyperuricaemia (All subjects N = 37, Grade 3/4): 1 (2.7) n (%)
AE: Hypoalbuminaemia (All subjects N = 37, Grade 3/4): 0 n (%)
AE: Hypocalcaemia (All subjects N = 37, Grade 3/4): 0 n (%)
AE: Hypokalaemia (All subjects N = 37, Grade 3/4): 0 n (%)
AE: Hypomagnesaemia (All subjects N = 37, Grade 3/4): 0 n (%)
AE: Hyponatraemia (All subjects N = 37, Grade 3/4): 0 n (%)
AE: Hypophosphataemia (All subjects N = 37, Grade 3/4): 2 (5.4) n (%)
AE: Hypotension (All subjects N = 37, Grade 3/4): 0 n (%)
AE: Infection (All subjects N = 37, Grade 3/4): 1 (2.7) n (%)
AE: Infective Glossitis (All subjects N = 37, Grade 3/4): 0 n (%)
AE: Iron Overload (All subjects N = 37, Grade 3/4): 0 n (%)
AE: Leukopenia (All subjects N = 37, Grade 3/4): 2 (5.4) n (%)
AE: Lip Oedema (All subjects N = 37, Grade 3/4): 0 n (%)
AE: Lipase Increased (All subjects N = 37, Grade 3/4): 2 (5.4) n (%)
AE: Macular Oedema (All subjects N = 37, Grade 3/4): 1 (2.7) n (%)
AE: Malaise (All subjects N = 37, Grade 3/4): 0 n (%)
AE: Mouth Haemorrhage (All subjects N = 37, Grade 3/4): 0 n (%)
AE: Nausea (All subjects N = 37, Grade 3/4): 0 n (%)
AE: Neutropenia/Neutrophil Count Decreased (All subjects N = 37, Grade 3/4): 11 (29.7) n (%)
AE: Oedema (All subjects N = 37, Grade 3/4): 0 n (%)
AE: Oedema Peripheral (All subjects N = 37, Grade 3/4): 0 n (%)
AE: Oral Disorder (All subjects N = 37, Grade 3/4): 0 n (%)
AE: Pain In Extremity (All subjects N = 37, Grade 3/4): 0 n (%)
AE: Pancytopenia (All subjects N = 37, Grade 3/4): 2 (5.4) n (%)
AE: Pneumonia (All subjects N = 37, Grade 3/4): 0 n (%)
AE: Pollakiuria (All subjects N = 37, Grade 3/4): 0 n (%)
AE: Pyrexia (All subjects N = 37, Grade 3/4): 0 n (%)
AE: Rash (All subjects N = 37, Grade 3/4): 0 n (%)
AE: Rash Erythematous (All subjects N = 37, Grade 3/4): 0 n (%)
AE: Rash Papular (All subjects N = 37, Grade 3/4): 0 n (%)
AE: Rectal Haemorrhage (All subjects N = 37, Grade 3/4): 0 n (%)
AE: Renal Failure (All subjects N = 37, Grade 3/4): 1 (2.7) n (%)
AE: Skin Exfoliation (All subjects N = 37, Grade 3/4): 0 n (%)
AE: Stomatitis (All subjects N = 37, Grade 3/4): 1 (2.7) n (%)
AE: Subarachnoid Haemorrhage (All subjects N = 37, Grade 3/4): 1 (2.7) n (%)
AE: Thrombocytopenia/Platelet Count Decreased (All subjects N = 37, Grade 3/4): 18 (48.6) n (%)
AE: Total (All subjects N = 37, Grade 3/4): 25 (67.6) n (%)
AE: Tumour Lysis Syndrome (All subjects N = 37, Grade 3/4): 9 (24.3) n (%)
AE: Vomiting (All subjects N = 37, Grade 3/4): 0 n (%)
AE: Weight Decreased (All subjects N = 37, Grade 3/4): 0 n (%)
AE: White Blood Cell Count Decreased (All subjects N = 37, Grade 3/4): 3 (8.1) n (%)
AE: Abdominal Discomfort (Regimen 1A N = 16, All Grades): 1 (6.3) n (%)
AE: Abdominal Pain (Regimen 1A N = 16, All Grades): 2 (12.5) n (%)
AE: Abdominal Pain Upper (Regimen 1A N = 16, All Grades): 1 (6.3) n (%)
AE: Acute Kidney Injury (Regimen 1A N = 16, All Grades): 1 (6.3) n (%)
AE: Amylase Increased (Regimen 1A N = 16, All Grades): 3 (18.8) n (%)
AE: Anaemia (Regimen 1A N = 16, All Grades): 6 (37.5) n (%)
AE: Arthralgia (Regimen 1A N = 16, All Grades): 1 (6.3) n (%)
AE: Asthenia (Regimen 1A N = 16, All Grades): 2 (12.5) n (%)
AE: Atrial Fibrillation (Regimen 1A N = 16, All Grades): 2 (12.5) n (%)
AE: Atypical Pneumonia (Regimen 1A N = 16, All Grades): 1 (6.3) n (%)
AE: Balanitis Candida (Regimen 1A N = 16, All Grades): 1 (6.3) n (%)
AE: Blood Alkaline Phosphatase Increased (Regimen 1A N = 16, All Grades): 1 (6.3) n (%)
AE: Blood Bilirubin Increased (Regimen 1A N = 16, All Grades): 1 (6.3) n (%)
AE: Blood Creatinine Increased (Regimen 1A N = 16, All Grades): 1 (6.3) n (%)
AE: Blood Phosphorus Increased (Regimen 1A N = 16, All Grades): 1 (6.3) n (%)
AE: Blood Uric Acid Increased (Regimen 1A N = 16, All Grades): 1 (6.3) n (%)
AE: Bone Marrow Failure (Regimen 1A N = 16, All Grades): 0 n (%)
AE: C-Reactive Protein Increased (Regimen 1A N = 16, All Grades): 1 (6.3) n (%)
AE: Cardiac Failure (Regimen 1A N = 16, All Grades): 1 (6.3) n (%)
AE: Cellulitis (Regimen 1A N = 16, All Grades): 0 n (%)
AE: Chronic Graft Versus Host Disease (Regimen 1A N = 16, All Grades): 1 (6.3) n (%)
AE: Conjunctival Haemorrhage (Regimen 1A N = 16, All Grades): 1 (6.3) n (%)
AE: Constipation (Regimen 1A N = 16, All Grades): 0 n (%)
AE: Cough (Regimen 1A N = 16, All Grades): 1 (6.3) n (%)
AE: Cystitis Viral (Regimen 1A N = 16, All Grades): 1 (6.3) n (%)
AE: Cytomegalovirus Infection (Regimen 1A N = 16, All Grades): 0 n (%)
AE: Decreased Appetite (Regimen 1A N = 16, All Grades): 4 (25.0) n (%)
AE: Diarrhoea (Regimen 1A N = 16, All Grades): 4 (25.0) n (%)
AE: Dyspepsia (Regimen 1A N = 16, All Grades): 1 (6.3) n (%)
AE: Dyspnoea (Regimen 1A N = 16, All Grades): 1 (6.3) n (%)
AE: Epistaxis (Regimen 1A N = 16, All Grades): 0 n (%)
